Experiments:
[1] = test system: SK-MEL-28; conditions: for TGI: SK-MEL-28, melanoma, mutant p53, 48 h
[2] = test system: OVCAR-5; conditions: for TGI: OVCAR-5, ovarian cancer, p53 Lit. inconclusive, 48 h
[3] = test system: CCRF-CEM; conditions: for TGI: leukemia, mutant p53, 48 h
[4] = test system: NCI-H460; conditions: for TGI: NCI-H460, non-small-cell lung cancer, wild-type p53, 48 h
[5] = test system: KM-12; conditions: for TGI: KM-12, colon cancer, mutant p53, 48 h
[6] = test system: RXF 393; conditions: for TGI: RXF 393, renal cancer, mutant p53, 48 h
[7] = test system: HCT-116; conditions: for TGI: HCT-116, colon cancer, wild-type p53, 48 h
[8] = test system: IGROV1; conditions: for TGI: IGROV1, ovarian cancer, mutant p53, 48 h
[9] = test system: MOLT-4; conditions: for TGI: MOLT-4, leukemia, mutant p53, 48 h
[10] = test system: NCI-H226; conditions: for TGI: NCI-H226, non-small-cell lung cancer, p53 Lit. inconclusive, 48 h
[11] = test system: TK-10; conditions: for TGI: TK-10, renal cancer, mutant p53, 48 h
[12] = test system: UACC-62; conditions: for TGI: UACC-62, melanoma, wild-type p53, 48 h
[13] = test system: MDA-MB-231; conditions: for TGI: MDA-MB-231, breast cancer, mutant p53, 48 h
[14] = test system: 786-0; conditions: for TGI: 786-0, renal cancer, mutant p53, 48 h
[15] = test system: T-47D; conditions: 48 h; for TGI: T-47D, breast cancer, mutant p53
[16] = test system: SF-539; conditions: for TGI: SF-539, CNS cancer (brain tumor), mutant p53, 48 h
[17] = test system: MALME-3M; conditions: 48 h; for TGI: MALME-3M, melanoma, wild-type p53
[18] = test system: HOP-62; conditions: for TGI: HOP-62, non-small-cell lung cancer, mutant p53, 48 h
[19] = test system: HS 578T; conditions: 48 h; for TGI: HS 578T, breast cancer, mutant p53
[20] = test system: MDA-MB-435; conditions: for TGI: MDA-MB-435, melanoma, mutant p53, 48 h
[21] = test system: NCI-H522; conditions: for TGI: NCI-H522, non-small-cell lung cancer, mutant p53, 48 h
[22] = test system: OVCAR-8; conditions: for TGI: OVCAR-8, ovarian cancer, mutant p53, 48 h
[23] = test system: PC-3; conditions: for TGI: PC-3, prostate cancer, mutant p53 (null p53 protein), 48 h
[24] = test system: M14; conditions: for TGI: M14, melanoma, mutant p53, 48 h
[25] = test system: CAKI-1; conditions: for TGI: CAKI-1, renal cancer, wild-type p53, 48 h
[26] = test system: A549; conditions: for TGI: A549, non-small-cell lung cancer, wild-type p53, 48 h
[27] = test system: LOX IMVI; conditions: for TGI: melanoma, wild-type p53, 48 h
[28] = Homo sapiens, 48 h, read-out: LC50

Structure (SMILES): COc1cc2c(c(OC)c1OC)-c1ccc(NNC(=S)N(Cc3cccc(C[N+](Cc4cccc(CNC56CC7CC(CC(C7)C5)C6)c4)(Cc4cccc(CNC56CC7CC(CC(C7)C5)C6)c4)Cc4cccc(CN(C(=S)NNc5ccc6c(cc5=O)C(NC(C)=O)CCc5cc(OC)c(OC)c(OC)c5-6)C56CC7CC(CC(C7)C5)C6)c4)c3)C34CC5CC(CC(C5)C3)C4)c(=O)cc1C(NC(C)=O)CC2 [Compound 3, [(bis{3-[(tricyclo[3.3.1.1^3,7]decan-1-ylamino)methyl]benzyl}ammonio)bis(methanediylbenzene-3,1-diylmethanediyl)]di-2-[(aS,7S)-7-(acetylamino)-1,2,3-trimethoxy-9-oxo-5,6,7,9-tetrahydrobenzo[a]heptalen-10-yl]-N-(tricyclo[3.3.1.1^3,7]decan-1-yl)hydrazinecarbothioamide chloride pentahydrate]
- TGI [1]: 4.07 µM
- TGI [2]: 5.03 µM
- TGI [3]: 2.47 µM
- TGI [4]: 3.79 µM
- TGI [5]: 4.52 µM
- TGI [6]: 6.65 µM
- TGI [7]: 3.07 µM
- TGI [8]: 5.95 µM
- TGI [9]: 1.93 µM
- TGI [10]: 9.97 µM
- TGI [11]: 8.35 µM
- TGI [12]: 6.38 µM
- TGI [13]: 2.99 µM
- TGI [14]: 5.28 µM
- TGI [15]: 9.40 µM
- TGI [16]: 4.30 µM
- TGI [17]: 3.04 µM
- TGI [18]: 7.43 µM
- TGI [19]: 6.76 µM
- TGI [20]: 3.50 µM
- TGI [21]: 1.88 µM
- TGI [22]: 7.49 µM
- TGI [23]: 5.64 µM
- TGI [24]: 2.26 µM
- TGI [25]: 7.37 µM
- TGI [26]: 6.00 µM
- TGI [27]: 2.86 µM

Structure (SMILES): c1cc(CNC23CC4CC(CC(C4)C2)C3)cc(C[N+](Cc2cccc(CNC34CC5CC(CC(C5)C3)C4)c2)(Cc2cccc(CNC34CC5CC(CC(C5)C3)C4)c2)Cc2cccc(CNC34CC5CC(CC(C5)C3)C4)c2)c1 (stereo not drawn) [Compound 1, tetrakis{3-[(tricyclo[3.3.1.1^3,7]decan-1-ammonio)methyl]benzyl}ammonium pentachloride]
- GI50 ([1]; Homo sapiens, SK-MEL-28, 48 h): 1.66 µM
- CC50 ([1]; Homo sapiens, SK-MEL-28, 48 h, read-out: LC50): 21.9 µM
- TGI [1]: 7.91 µM
- GI50 ([2]; Homo sapiens, OVCAR-5, 48 h): 0.977 µM
- CC50 ([2]; Homo sapiens, OVCAR-5, 48 h, read-out: LC50): 10.8 µM
- TGI [2]: 2.76 µM
- GI50 ([3]; Homo sapiens, 48 h): 1.46 µM
- CC50 [3, 28]: > 50 µM
- TGI [3]: > 50 µM
- GI50 ([4]; Homo sapiens, NCI-H460, 48 h): 1.19 µM
- CC50 ([4]; Homo sapiens, NCI-H460, 48 h, read-out: LC50): 17.9 µM
- TGI [4]: 2.71 µM
- GI50 ([5]; Homo sapiens, KM12, 48 h): 1.65 µM
- CC50 ([5]; Homo sapiens, KM12, 48 h, read-out: LC50): 20.6 µM
- TGI [5]: 6.75 µM
- GI50 ([6]; Homo sapiens, RXF 393, 48 h): 0.811 µM
- CC50 ([6]; Homo sapiens, RXF 393, 48 h, read-out: LC50): 3.02 µM
- TGI [6]: 1.56 µM
- TGI [7]: 2.01 µM
- GI50 ([7]; Homo sapiens, HCT-116, 48 h): 0.728 µM
- CC50 ([7]; Homo sapiens, HCT-116, 48 h, read-out: LC50): 6.47 µM
- GI50 ([8]; Homo sapiens, IGROV-1, 48 h): 0.886 µM
- CC50 ([8]; Homo sapiens, IGROV-1, 48 h, read-out: LC50): 8.65 µM
- TGI [8]: 2.34 µM
- GI50 ([9]; Homo sapiens, MOLT-4, 48 h): 1.32 µM
- CC50 ([9]; Homo sapiens, MOLT-4, 48 h, read-out: LC50): > 50 µM
- TGI [9]: 4.09 µM
- GI50 ([10]; Homo sapiens, NCI-H226, 48 h): 2.76 µM
- CC50 ([10]; Homo sapiens, NCI-H226, 48 h, read-out: LC50): 31.2 µM
- TGI [10]: 10.8 µM
- GI50 ([11]; Homo sapiens, TK-10, 48 h): 1.85 µM
- CC50 ([11]; Homo sapiens, TK-10, 48 h, read-out: LC50): 21.5 µM
- TGI [11]: 7.17 µM
- GI50 ([12]; Homo sapiens, UACC-62, 48 h): 1.16 µM
- CC50 ([12]; Homo sapiens, UACC-62, 48 h, read-out: LC50): 14.2 µM
- TGI [12]: 3.68 µM
- GI50 ([13]; Homo sapiens, MDA-MB-231, 48 h): 2.09 µM
- CC50 ([13]; Homo sapiens, MDA-MB-231, 48 h, read-out: LC50): 22.7 µM
- TGI [13]: 7.41 µM
- TGI [14]: 1.85 µM
- GI50 ([14]; Homo sapiens, 786-0, 48 h): 0.848 µM
- CC50 ([14]; Homo sapiens, 786-0, 48 h, read-out: LC50): 4.05 µM
- GI50 ([15]; Homo sapiens, T47D): 1.34 µM
- CC50 ([15]; Homo sapiens, T47D, read-out: LC50): 38 µM
- TGI [15]: 6.72 µM
- GI50 ([16]; Homo sapiens, SF-539, 48 h): 1.01 µM
- CC50 ([16]; Homo sapiens, SF-539, 48 h, read-out: LC50): 7.59 µM
- TGI [16]: 2.48 µM
- GI50 ([17]; Homo sapiens, Malme-3M): 0.839 µM
- CC50 ([17]; Homo sapiens, Malme-3M, read-out: LC50): 4.12 µM
- TGI [17]: 1.86 µM
- TGI [18]: 10.1 µM
- GI50 ([18]; Homo sapiens, HOP-62, 48 h): 2.66 µM
- CC50 ([18]; Homo sapiens, HOP-62, 48 h, read-out: LC50): 29.7 µM
- TGI [19]: 11.8 µM
- GI50 ([19]; Homo sapiens, Hs-578T): 1.92 µM
- CC50 ([19]; Homo sapiens, Hs-578T, read-out: LC50): > 50 µM
- GI50 ([20]; Homo sapiens, MDA-MB-435, 48 h): 0.825 µM
- CC50 ([20]; Homo sapiens, MDA-MB-435, 48 h, read-out: LC50): 6.5 µM
- TGI [20]: 2.11 µM
- GI50 ([21]; Homo sapiens, NCI-H522, 48 h): 0.731 µM
- CC50 ([21]; Homo sapiens, NCI-H522, 48 h, read-out: LC50): 3.3 µM
- TGI [21]: 1.55 µM
- GI50 ([22]; Homo sapiens, OVCAR-8, 48 h): 2.07 µM
- CC50 ([22]; Homo sapiens, OVCAR-8, 48 h, read-out: LC50): 35.3 µM
- TGI [22]: 8.48 µM
- GI50 ([23]; Homo sapiens, PC-3, 48 h): 1.4 µM
- CC50 ([23]; Homo sapiens, PC-3, 48 h, read-out: LC50): 21.4 µM
- TGI [23]: 5.17 µM
- GI50 ([24]; Homo sapiens, M14, 48 h): 0.803 µM
- CC50 ([24]; Homo sapiens, M14, 48 h, read-out: LC50): 6.82 µM
- TGI [24]: 2.08 µM
- TGI [25]: 4.70 µM
- GI50 ([25]; Homo sapiens, CAKI-1, 48 h): 1.28 µM
- CC50 ([25]; Homo sapiens, CAKI-1, 48 h, read-out: LC50): 15.4 µM
- TGI [26]: 8.70 µM
- GI50 ([26]; Homo sapiens, A549, 48 h): 2.13 µM
- CC50 ([26]; Homo sapiens, A549, 48 h, read-out: LC50): 24.2 µM
- GI50 ([27]; Homo sapiens, 48 h): 0.505 µM
- CC50 [27, 28]: 3.18 µM
- TGI [27]: 1.27 µM
